According to US20230382904A1, “SUBSTITUTED 4-([1,2,4]TRIAZOLO[1,5-a]PYRIDIN-6-YL)THIOPHENE-2-CARBOXAMIDE DERIVATIVES AND USE THEREOF” (The Johns Hopkins University, priority 2020, published 2023):

Tests used:
DLK = DLK (Homo sapiens (Human), UniProt Q12852); assay: DLK biochemical assay (TR-FRET, MKK7 phosphorylation)
How it was run: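 TR-FRET ratio (665/Eu) reports MKK7 T275/S277 phosphorylation, lowered by DLK inhibition. Reaction: 60 μM ATP, 15 nM MKK7, 10 nM DLK catalytic domain, 90 min room temperature; detection incubation 16 h, 37° C. (1536-well) or 4° C. (384-well). Final concentrations.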

LZK = LZK (Homo sapiens (Human), UniProt O43283); assay: LZK biochemical assay (TR-FRET, MKK7 phosphorylation)
Sequence of LZK (O43283 168-409): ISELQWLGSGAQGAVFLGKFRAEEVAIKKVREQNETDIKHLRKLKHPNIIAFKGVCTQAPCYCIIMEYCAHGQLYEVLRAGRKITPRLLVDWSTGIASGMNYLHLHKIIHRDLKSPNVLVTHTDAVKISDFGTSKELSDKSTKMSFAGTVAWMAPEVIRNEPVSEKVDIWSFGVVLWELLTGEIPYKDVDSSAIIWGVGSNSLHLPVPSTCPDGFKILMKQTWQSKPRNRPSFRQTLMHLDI
How it was run: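 Readout is the HTRF ratio (XL665/Eu) from an EDTA-containing detection mix of 0.4 nM Eu-anti-phospho-MKK7 (T275/S277) and 20 nM XL665-anti-His, incubated 16 h at 32° C. This followed a 90 min RT reaction of 10 nM LZK catalytic domain, 15 nM MKK7 and 15 μM ATP at pH 7.5.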

Sequence of DLK (Q12852 1-520): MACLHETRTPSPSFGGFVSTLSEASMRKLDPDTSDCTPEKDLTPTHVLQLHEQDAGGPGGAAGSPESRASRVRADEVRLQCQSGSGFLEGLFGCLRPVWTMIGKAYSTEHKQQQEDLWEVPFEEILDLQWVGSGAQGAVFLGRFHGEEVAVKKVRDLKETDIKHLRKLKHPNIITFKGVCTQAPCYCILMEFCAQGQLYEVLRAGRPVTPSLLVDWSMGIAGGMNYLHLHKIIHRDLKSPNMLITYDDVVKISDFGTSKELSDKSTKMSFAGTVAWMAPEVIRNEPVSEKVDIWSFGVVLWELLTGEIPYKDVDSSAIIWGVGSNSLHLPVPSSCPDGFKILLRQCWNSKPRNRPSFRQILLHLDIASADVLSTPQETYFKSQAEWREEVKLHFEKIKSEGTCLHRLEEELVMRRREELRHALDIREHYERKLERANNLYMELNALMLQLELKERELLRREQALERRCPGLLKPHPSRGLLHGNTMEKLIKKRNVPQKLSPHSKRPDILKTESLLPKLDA

IC50 (DLK) [nM]	IC50 (LZK) [nM]	Compound
1100	3700	Nc1nc2cc(F)c(-c3csc(C(=O)NCc4ccc(F)cc4)c3)cn2n1 [Compound 300]
570	3700	Nc1nc2c(C(=O)NCC(F)(F)F)cc(-c3csc(C(=O)NCc4ccc(F)cc4)c3)cn2n1 [Compound 61]
12.5	455	CCNC(=O)c1cc(-c2csc(C(=O)N[C@@H](CC)c3ccccc3)c2)cn2nc(N)nc12 [Compound 82]
500	2300	Cc1cc(-c2csc(C(=O)NCc3ccc(F)cc3)c2)cn2nc(N)nc12 [Compound 371]
62	1600	CC[C@H](NC(=O)c1cc(-c2ccc3nc(N)nn3c2)cs1)c1ccccc1 [Compound 324]
910	13000	CCn1ccc(C(C)NC(=O)c2cc(-c3ccc4nc(N)nn4c3)cs2)n1 (stereo not drawn) [Compound 331]
130	2500	Nc1nc2ccc(-c3csc(C(=O)NC4COc5ccc(F)cc54)c3)cn2n1 (stereo not drawn) [Compound 306]
13	170	COc1cccc(CNC(=O)c2cc(-c3cc(C(=O)N[C@@H](C)CO)c4nc(N)nn4c3)cs2)c1 [Compound 31]
7.4	250	CC[C@@H](NC(=O)c1cc(-c2cc(C(=O)N[C@H]3CCOC3)c3nc(N)nn3c2)cs1)c1ccc(F)cc1 [Compound 135]
360	1200	Nc1nc2c(C(=O)NC3CC3)cc(-c3csc(C(=O)NCc4ccc(F)cc4)c3)cn2n1 [Compound 46]
164	2950	C[C@H](NC(=O)c1cc(-c2ccc3nc(N)nn3c2)cs1)c1ccccc1 [Compound 323]
750	2800	COCc1cc(-c2csc(C(=O)NCc3ccc(F)cc3)c2)cn2nc(N)nc12 [Compound 387]
480	8800	Nc1nc2ccc(-c3csc(C(=O)NCc4cccc(OC(F)F)c4)c3)cn2n1 [Compound 195]
505	> 30000	COc1cccc([C@@H](C)NC(=O)c2cc(-c3ccc4nc(N)nn4c3)cs2)c1 [Compound 264]
250	23000	COC(=O)c1cccc(CNC(=O)c2cc(-c3ccc4nc(N)nn4c3)cs2)c1 [Compound 280]
64	230	COc1cccc(CNC(=O)c2cc(-c3cc(C(=O)NC(C)C)n4nc(N)nc4c3)cs2)c1 [Compound 148]
730	12000	COc1cccc(CNC(=O)c2cc(-c3cn4nc(N)nc4cc3F)cs2)c1 [Compound 296]
94	1100	C[C@H](NC(=O)c1cc(-c2cc(C(=O)NC3CCNC3)c3nc(N)nn3c2)cs1)c1ccc(F)cc1 (single isomer, unassigned) [Compound 49]

IC50 (DLK) [nM]	IC50 (LZK) [nM]	Compound
6	360	CC(C)NC(=O)c1cc(-c2csc(C(=O)N[C@H]3CCCc4ccccc43)c2)cn2nc(N)nc12 [Compound 122]
4.75	34	CC[C@H](C)NC(=O)c1cc(-c2csc(C(=O)N[C@@H](C)c3ccc(F)cc3)c2)cn2nc(N)nc12 [Compound 94, 2-Amino-N-[(2S)-butan-2-yl]-6-(5-{[(1S)-1-(4-fluorophenyl)ethyl]carbamoyl}thiophen-3-yl)[1,2,4]triazolo[1,5-a]pyridine-8-carboxamide]
5700	> 30000	CCN1CCC[C@@H](NC(=O)c2cc(-c3ccc4nc(N)nn4c3)cs2)C1 [Compound 287]
320	5600	Nc1nc2c(C(=O)NC3COC3)cc(-c3csc(C(=O)NCc4ccc(F)cc4)c3)cn2n1 [Compound 74]
37.5	590	C[C@@H](CO)NC(=O)c1cc(-c2csc(C(=O)NC3CCCCC3)c2)cn2nc(N)nc12 [Compound 39]
1070	9600	Nc1nc2ccc(-c3csc(C(=O)NCc4ccc(F)c(F)c4)c3)cn2n1 [Compound 212]
5.15	87	CC[C@H](NC(=O)c1cc(-c2cc(C(=O)NC(C)C)c3nc(N)nn3c2)cs1)c1ccccc1 [Compound 76]
310	> 30000	C[C@H](NC(=O)c1cc(-c2ccc3nc(N)nn3c2)cs1)c1ccc(OC(F)(F)F)cc1 [Compound 356]
4.61	61	C[C@H](NC(=O)c1cc(-c2cc(C(=O)N[C@@H](C)CO)c3nc(N)nn3c2)cs1)c1ccccc1 [Compound 25]
1960	9100	Cn1cnc(CNC(=O)c2cc(-c3ccc4nc(N)nn4c3)cs2)c1 [Compound 251]
36	100	CC(C)NC(=O)c1cc(-c2csc(C(=O)NCc3nc4ccccc4o3)c2)cc2nc(N)nn12 [Compound 151]
1750	25000	CN1CCO[C@H](CNC(=O)c2cc(-c3ccc4nc(N)nn4c3)cs2)C1 [Compound 214]
280	6100	Nc1nc2c(C(=O)NCC(F)(F)F)cc(-c3csc(C(=O)NCc4ccccc4)c3)cn2n1 [Compound 53]
8.9	110	CC[C@H](C)NC(=O)c1cc(-c2csc(C(=O)NC3(c4ccc(F)cc4)CCCC3)c2)cn2nc(N)nc12 [Compound 143]
38	770	CC[C@@H](C)NC(=O)c1cc(-c2csc(C(=O)N[C@@H](CC)c3ccc(F)cc3)c2)cn2nc(N)nc12 [Compound 144]
980	3400	CC[C@@H](NC(=O)c1cc(-c2csc(C(=O)NCc3ccc(F)cc3)c2)cn2nc(N)nc12)C(F)(F)F [Compound 126]
39	380	C[C@@H](CO)NC(=O)c1cc(-c2csc(C(=O)NCc3nc4ccccc4o3)c2)cn2nc(N)nc12 [Compound 40]
290	> 30000	Nc1nc2ccc(-c3csc(C(=O)NC(c4ccc(F)cc4)C(F)(F)F)c3)cn2n1 (stereo not drawn) [Compound 336]
